Tests used:
Type in all cases: functional
[1] = test system: Gaeumannomyces tritici; assay: Antimicrobial activity of agar culture isolated compound against Gaeumannomyces graminis var. tritici assessed as colony area after 3 days
[2] = test system: Gaeumannomyces tritici; assay: Antimicrobial activity of agar culture isolated compound against Gaeumannomyces graminis var. tritici assessed as colony area after 1 day
[3] = test system: Globisporangium middletonii; assay: Antimicrobial activity of agar culture isolated compound against Pythium middletonii assessed as colony area after 3 days
[4] = test system: Gaeumannomyces tritici; assay: Antimicrobial activity of broth culture isolated compound against Gaeumannomyces graminis var. tritici assessed as colony area after 6 days
[5] = test system: Gaeumannomyces tritici; assay: Antimicrobial activity of broth culture isolated compound against Gaeumannomyces graminis var. tritici assessed as colony area after 2 days
[6] = test system: Phytophthora cinnamomi; assay: Antimicrobial activity of agar culture isolated compound against Phytophthora cinnamomi assessed as colony area after 3 days
[7] = test system: Gaeumannomyces tritici; assay: Antimicrobial activity of broth culture isolated compound against Gaeumannomyces graminis var. tritici assessed as colony area after 4 days
[8] = test system: Bipolaris sorokiniana; assay: Antimicrobial activity of agar culture isolated compound against Bipolaris sorokiniana assessed as colony area after 1 day
[9] = test system: Bipolaris sorokiniana; assay: Antimicrobial activity of agar culture isolated compound against Bipolaris sorokiniana assessed as colony area after 3 days
[10] = test system: Bipolaris sorokiniana; assay: Antimicrobial activity of agar culture isolated compound against Bipolaris sorokiniana assessed as colony area after 2 days
[11] = test system: Fusarium oxysporum; assay: Antimicrobial activity of agar culture isolated compound against Fusarium oxysporum assessed as colony area after 2 days
[12] = test system: Rhizoctonia solani; assay: Antimicrobial activity of agar culture isolated compound against Rhizoctonia solani assessed as colony area after 3 days
[13] = test system: Gaeumannomyces tritici; assay: Antimicrobial activity of broth culture isolated compound against Gaeumannomyces graminis var. tritici assessed as colony area after 3 days
[14] = test system: Phytophthora cinnamomi; assay: Antimicrobial activity of agar culture isolated compound against Phytophthora cinnamomi assessed as colony area after 1 day
[15] = test system: Gaeumannomyces tritici; assay: Antimicrobial activity of broth culture isolated compound against Gaeumannomyces graminis var. tritici assessed as colony area after 5 days
[16] = test system: Phytophthora cinnamomi; assay: Antimicrobial activity of agar culture isolated compound against Phytophthora cinnamomi assessed as colony area after 2 days
[17] = test system: Globisporangium middletonii; assay: Antimicrobial activity of agar culture isolated compound against Pythium middletonii assessed as colony area after 1 day
[18] = test system: Rhizoctonia solani; assay: Antimicrobial activity of agar culture isolated compound against Rhizoctonia solani assessed as colony area after 1 day
[19] = test system: Globisporangium middletonii; assay: Antimicrobial activity of agar culture isolated compound against Pythium middletonii assessed as colony area after 2 days
[20] = test system: Gaeumannomyces tritici; assay: Antimicrobial activity of agar culture isolated compound against Gaeumannomyces graminis var. tritici assessed as colony area after 2 days
[21] = test system: Fusarium oxysporum; assay: Antimicrobial activity of agar culture isolated compound against Fusarium oxysporum assessed as colony area after 3 days
[22] = test system: Fusarium oxysporum; assay: Antimicrobial activity of agar culture isolated compound against Fusarium oxysporum assessed as colony area after 1 day
[23] = test system: Rhizoctonia solani; assay: Antimicrobial activity of agar culture isolated compound against Rhizoctonia solani assessed as colony area after 2 days

CCCCCC[C@H](O)[C@@H]1C[C@@H](O)C2=C(O1)[C@H](O)CCC2=O
Activity [1]: 44 mm2
Activity [2]: 40 mm2
Activity [3]: 232 mm2
Activity [4]: 549 mm2
Activity [5]: 32 mm2
Activity [6]: 92 mm2
Activity [7]: 63 mm2
Activity [8]: 44 mm2
Activity [9]: 45 mm2
Activity [10]: 46 mm2
Activity [11]: 103 mm2
Activity [12]: 46 mm2
Activity [13]: 33 mm2
Activity [14]: 37 mm2
Activity [15]: 198 mm2
Activity [16]: 38 mm2
Activity [17]: 38 mm2
Activity [18]: 38 mm2
Activity [19]: 184 mm2
Activity [20]: 42 mm2
Activity [21]: 170 mm2
Activity [22]: 46 mm2
Activity [23]: 42 mm2

— ChEMBL document CHEMBL1147275, “An Antibiotic from Trichoderma Koningii Active Against Soilborne Plant Pathogens” (1989)
